{"source": "the NIST ThermoML archive (doi:10.1016/j.jct.2018.11.003)", "test": "cn = amount concentration of the nth substance listed, in mol/dm3", "settings": "298.15 K, 101.3 kPa, Liquid, Taylor dispersion method"}
{"smiles": "O=C([O-])CC(O)(CC(=O)[O-])C(=O)[O-].O=C([O-])CC(O)(CC(=O)[O-])C(=O)[O-].[Ca+2].[Ca+2].[Ca+2]", "note": "[calcium citrate] + O", "values": [{"measurement": "binary diffusion coefficient", "setting": "c1 = 0.0002", "value": "6.18e-10", "unit": "m2/s"}, {"measurement": "binary diffusion coefficient", "setting": "c1 = 0.000402", "value": "6.18e-10", "unit": "m2/s"}, {"measurement": "binary diffusion coefficient", "setting": "c1 = 0.000603", "value": "6.16e-10", "unit": "m2/s"}, {"measurement": "binary diffusion coefficient", "setting": "c1 = 0.000801", "value": "6.11e-10", "unit": "m2/s"}]}
{"smiles": "O=C(O)CC(O)(CC(=O)O)C(=O)O", "note": "[citric acid] + O", "values": [{"measurement": "binary diffusion coefficient", "setting": "c1 = 0.002", "value": "8.48e-10", "unit": "m2/s"}, {"measurement": "binary diffusion coefficient", "setting": "c1 = 0.00499", "value": "7.9e-10", "unit": "m2/s"}, {"measurement": "binary diffusion coefficient", "setting": "c1 = 0.00997", "value": "7.6e-10", "unit": "m2/s"}, {"measurement": "binary diffusion coefficient", "setting": "c1 = 0.05", "value": "7.19e-10", "unit": "m2/s"}]}
